{"source": "patent US5441985A", "about": "“Treatment of lower urinary tract disorders with selective norepinephrine uptake inhibitors” (priority 1993, dated 1995)", "key": {"nocturnal enuresis": {"system": "nocturnal enuresis", "settings": "cited from earlier work; for effectiveness in treating nocturnal enuresis: human, in vivo"}, "[1]": {"system": "rat urinary bladder strips", "settings": "cited from earlier work"}, "cholinergic receptors [2]": {"biological_target": "cholinergic receptors", "settings": "read-out: IC50 for displacement of tritiated-quinuclidinol benzoate (QNB) binding, cited from earlier work"}, "rabbit bladder": {"system": "rabbit bladder", "settings": "cited from earlier work"}, "[3]": {"system": "guinea pig bladder muscle strips", "settings": "guinea pig bladder muscle strips in vitro; cited from earlier work"}, "[4]": {"system": "dog urethra and bladder fragments", "experiment": "NE release in dog urethra and bladder fragments in vitro"}, "[5]": {"system": "rabbit urethra and bladder fragments", "experiment": "NE release in rabbit urethra and bladder fragments in vitro"}, "stress incontinence": {"system": "stress incontinence", "settings": "women with stress incontinence; cited from earlier work"}, "guinea pig bladder": {"system": "guinea pig bladder", "settings": "guinea pig strips in vitro and cystometrogram in vivo; cited from earlier work"}, "rabbit bladder strips [6]": {"system": "rabbit bladder strips", "settings": "cited from earlier work"}, "dog bladder strips [7]": {"system": "dog bladder strips", "settings": "cited from earlier work"}, "human bladder strips": {"system": "human bladder strips", "settings": "cited from earlier work"}, "dog bladder strips [8]": {"system": "dog bladder strips", "settings": "cited from earlier work", "remark": "listed apart in the source"}, "bladder [9]": {"system": "bladder", "settings": "female dogs; cited from earlier work"}, "[10]": {"system": "muscarinic presynaptic receptors", "settings": "rat bladder tissue in vitro; cited from earlier work"}, "rabbit bladder strips [11]": {"system": "rabbit bladder strips", "settings": "in the presence of imipramine; cited from earlier work"}, "rabbit detrusor strips": {"system": "rabbit detrusor strips", "settings": "rabbit detrusor strips in vitro; cited from earlier work"}, "frog sciatic nerves": {"system": "frog sciatic nerves", "settings": "frog sciatic nerves in vitro; cited from earlier work"}, "dog bladder and urethra": {"system": "dog bladder and urethra", "settings": "cited from earlier work"}, "cat bladder": {"system": "cat bladder", "settings": "in vivo; cited from earlier work"}, "[12]": {"system": "dog bladder muscle strips", "settings": "cited from earlier work"}, "urethra": {"system": "urethra", "settings": "female dogs; cited from earlier work"}, "micturition reflex": {"system": "micturition reflex", "settings": "cited from earlier work"}, "[13]": {"settings": "children under 5 years of age; cited from earlier work"}, "[14]": {"experiment": "clinical evaluation as potential treatments for depression, side effects"}, "cholinergic receptors [15]": {"biological_target": "cholinergic receptors", "experiment": "3H-QNB ligand displacement assay (in vitro anti-cholinergic assay)", "type": "binding", "settings": "3H-QNB displacement; read-out: anticholinergic IC50"}, "bladder [16]": {"system": "bladder", "experiment": "bladder function in the cat", "type": "in vivo"}, "rat urethral tissue": {"system": "rat urethral tissue", "experiment": "contractile response of rat urethral tissue to NE"}, "rat bladder tissue": {"system": "rat bladder tissue", "experiment": "relaxation of rat bladder tissue to NE"}, "[17]": {"settings": "human, in vivo"}}, "note": "Read-outs that look alike come from different tables or passages of the source."}
{"smiles": "CN(C)CCC=C1c2ccccc2CCc2ccccc21", "note": "[amitriptyline]", "values": [{"measurement": "effectiveness in treating nocturnal enuresis", "setting": "nocturnal enuresis", "value": "effective"}, {"measurement": "contractile response to electrical stimulation", "setting": "[1]", "value": "suppressed the contractile response"}]}
{"smiles": "CN1[C@@H]2CC[C@H]1C[C@@H](OC(=O)C(CO)c1ccccc1)C2", "note": "(some centres unmarked) [atropine]", "values": [{"measurement": "IC50", "setting": "cholinergic receptors [2]", "value": 52, "unit": "µM"}, {"measurement": "suppression/inhibition of field stimulated contraction", "setting": "rabbit bladder; rabbit bladder organ bath", "value": 30, "unit": "%"}, {"measurement": "suppression/relaxation of bethanechol-induced contraction", "setting": "rabbit bladder; rabbit bladder organ bath", "value": 70, "unit": "%"}, {"measurement": "potassium-induced contraction", "setting": "[3]", "value": "not effect at high concentration"}]}
{"smiles": "CNCCCN1c2ccccc2CCc2ccccc21", "note": "[desipramine]", "values": [{"measurement": "effectiveness in treating nocturnal enuresis", "setting": "nocturnal enuresis", "value": "effective"}, {"measurement": "contractile response to electrical stimulation", "setting": "[1]", "value": "suppressed the contractile response"}]}
{"smiles": "CN(C)CCCN1c2ccccc2CCc2ccccc21", "note": "[imipramine]", "values": [{"measurement": "NE release", "setting": "[4]", "value": "increase NE release"}, {"measurement": "NE release", "setting": "[5]", "value": "increase NE release"}, {"measurement": "IC50", "setting": "cholinergic receptors [2]; bladder homogenates", "value": 13, "unit": "µM"}, {"measurement": "suppression/inhibition of field stimulated contraction", "setting": "rabbit bladder; rabbit bladder organ bath", "value": 50, "unit": "%"}, {"measurement": "suppression/relaxation of bethanechol-induced contraction", "setting": "rabbit bladder; rabbit bladder organ bath", "value": 50, "unit": "%"}, {"measurement": "further patients with improvements", "setting": "nocturnal enuresis; following treatment", "value": "15-20%"}, {"measurement": "patients with enuresis cured", "setting": "nocturnal enuresis; following treatment", "value": "over 50%"}, {"measurement": "restoring continence", "setting": "stress incontinence", "value": "effective as a single therapy"}, {"measurement": "activity on bladder", "setting": "guinea pig bladder", "value": "anticholinergic, antispasmodic, and local anesthetic activity"}, {"measurement": "contractile responses to acetylcholine (ACH)", "setting": "rabbit bladder strips [6]", "value": "block in vitro contractile responses"}, {"measurement": "contractile responses to acetylcholine (ACH)", "setting": "dog bladder strips [7]", "value": "block in vitro contractile responses"}, {"measurement": "contractile responses to acetylcholine (ACH)", "setting": "human bladder strips", "value": "block in vitro contractile responses"}, {"measurement": "contractile responses to barium chloride", "setting": "dog bladder strips [8]", "value": "suppressed contractile responses to barium chloride"}, {"measurement": "musculotropic relaxant effect", "setting": "dog bladder strips [8]; compared with flavoxate", "value": "more potent than that of flavoxate"}, {"measurement": "cholinergic contractile responses induced by bethanechol", "setting": "dog bladder strips [8]; dog bladder strips", "value": "suppressed cholinergic contractile responses"}, {"measurement": "bladder pressure responses to pelvic nerve stimulation", "setting": "bladder [9]", "value": "reduced bladder pressure responses"}, {"measurement": "effect on muscarinic presynaptic receptors", "setting": "[10]", "value": "strong antagonistic effect on muscarinic presynaptic receptors"}, {"measurement": "effectiveness of calcium to augment bethanechol-induced contraction", "setting": "rabbit bladder strips [11]", "value": "decreased effectiveness of calcium"}, {"measurement": "carbamylcholine and barium chloride-induced contractions", "setting": "rabbit detrusor strips", "value": "antagonize"}, {"measurement": "impulse conduction", "setting": "frog sciatic nerves", "value": "block the impulse conduction"}, {"measurement": "bladder and urethral pressure responses to pelvic nerve stimulation and other stimuli", "setting": "dog bladder and urethra", "value": "reduce dog bladder and urethral pressure responses"}, {"measurement": "effects of hypogastric nerve stimulation on bladder relaxation", "setting": "cat bladder", "value": "potentiated the effects of hypogastric nerve stimulation"}, {"measurement": "relaxation effects of norepinephrine", "setting": "[12]; with norepinephrine", "value": "enhanced the in vitro relaxation effects of norepinephrine"}, {"measurement": "effect on bladder muscle strips alone", "setting": "[12]; without norepinephrine", "value": "no effects alone"}, {"measurement": "urethral pressure", "setting": "urethra", "value": "increase urethral pressure"}, {"measurement": "supraspinal reflex or myogenic activity of bladder", "setting": "micturition reflex; acute administration", "value": "no effect"}, {"measurement": "threshold for activating the bladder-spinal-bladder (vesicovesical) micturition reflex", "setting": "micturition reflex; acute administration", "value": "increased the threshold"}, {"measurement": "threshold for supraspinal reflex", "setting": "micturition reflex; repeated administration", "value": "increased threshold for supraspinal reflex"}, {"measurement": "potassium-induced contraction", "setting": "[3]", "value": "suppression of potassium-induced contraction"}, {"measurement": "toxicity in children", "setting": "[13]", "value": "particularly toxic and potentially lethal in low dosage"}, {"measurement": "noted side effect", "setting": "[14]", "value": "urine retention"}]}
{"smiles": "CCN(CC)CC(=O)Nc1c(C)cccc1C", "note": "[lidocaine]", "values": [{"measurement": "potassium-induced contraction", "setting": "[3]", "value": "not effect at high concentration"}]}
{"smiles": "CNCCC=C1c2ccccc2CCc2ccccc21", "note": "[nortriptyline]", "values": [{"measurement": "effectiveness in treating nocturnal enuresis", "setting": "nocturnal enuresis", "value": "effective"}]}
{"smiles": "CC(C)[N+](C)(CCOC(=O)C1c2ccccc2Oc2ccccc21)C(C)C", "note": "[propantheline]", "values": [{"measurement": "IC50", "setting": "cholinergic receptors [2]; bladder homogenates", "value": 29.5, "unit": "µM"}]}
{"smiles": "CNCC[C@@H](Oc1ccccc1C)c1ccccc1", "note": "[tomoxetine, (-)-N-methyl-3-(2-methylphenoxy)-3-phenylpropylamine]", "values": [{"measurement": "IC50", "setting": "cholinergic receptors [15]", "value": 21, "unit": "µM"}, {"measurement": "amplitude and frequency of contractions", "setting": "bladder [16]", "value": "decreasing the amplitude and frequency of contractions"}, {"measurement": "bladder capacity", "setting": "bladder [16]", "value": "increasing bladder capacity"}, {"measurement": "NE release", "setting": "[4]", "value": "increase NE release"}, {"measurement": "NE release", "setting": "[5]", "value": "increase NE release"}, {"measurement": "contractile response of urethral tissue to NE", "setting": "rat urethral tissue", "value": "significantly increase the contractile response"}, {"measurement": "relaxation of bladder tissue to NE", "setting": "rat bladder tissue", "value": "augment the relaxation"}, {"measurement": "noted side effect", "setting": "[17]", "value": "urine retention"}, {"measurement": "side effects such as dry mouth, drowsiness, and dizziness", "setting": "[17]", "value": "considerably fewer side effects"}]}
{"smiles": "COc1ccc(CCN(C)CCCC(C#N)(c2ccc(OC)c(OC)c2)C(C)C)cc1OC", "note": "(centres unmarked) [verapamil]", "values": [{"measurement": "suppression/inhibition of field stimulated contraction", "setting": "rabbit bladder", "value": 81, "unit": "%"}, {"measurement": "suppression/relaxation of bethanechol-induced contraction", "setting": "rabbit bladder; rabbit, bladder", "value": 85, "unit": "%"}]}
